Biological target: T1, Aurora A (Homo sapiens, UniProt O14965)
T1 construct: cell lysates from Jurkat cells (ATCC TIB-152) used; endogenous in cells; host or cells: Jurkat cells (ATCC TIB-152), treated with pervanadate
T1 sequence (O14965 1-403): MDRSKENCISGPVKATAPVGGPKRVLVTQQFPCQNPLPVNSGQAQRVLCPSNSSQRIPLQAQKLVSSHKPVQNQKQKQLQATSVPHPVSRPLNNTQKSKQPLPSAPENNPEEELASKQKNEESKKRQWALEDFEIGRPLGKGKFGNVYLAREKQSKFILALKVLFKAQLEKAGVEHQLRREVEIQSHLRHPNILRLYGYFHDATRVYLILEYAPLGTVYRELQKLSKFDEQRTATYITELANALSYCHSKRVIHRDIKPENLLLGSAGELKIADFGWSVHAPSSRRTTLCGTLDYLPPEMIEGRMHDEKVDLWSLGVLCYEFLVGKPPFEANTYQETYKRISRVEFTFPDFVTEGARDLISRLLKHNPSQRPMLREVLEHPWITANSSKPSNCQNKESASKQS
Test: Kinobeads assay, Aurora A
Assay type: binding
Conditions: for IC50: lysate of pervanadate-treated Jurkat cells, read-out: Inhibition values (IC50) Aur A

| Compound | JAK3/AurA Fold Selectivity | IC50 |
| --- | --- | --- |
| CN(C)CCCn1cc(Nc2ncc3cnn(Cc4c(F)c(F)cc(N5CCOCC5)c4F)c3n2)cn1 [Example 42, N-(1-(3-(Dimethylamino)propyl)-1H-pyrazol-4-yl)-1-(2,3,6-trifluoro-5-morpholinobenzyl)-1H-pyrazolo[3,4-d]pyrimidin-6-amine] | >50 Fold | 1000 to 10000 nM |
| CN(C)CCCn1cc(Nc2ncc3cnn(Cc4cccc(N5CCOCC5)c4F)c3n2)cn1 [Example 43, N-(1-(3-(Dimethylamino)propyl)-1H-pyrazol-4-yl)-1-(2-fluoro-3-morpholinobenzyl)-1H-pyrazolo[3,4-d]pyrimidin-6-amine] | >50 Fold | 1000 to 10000 nM |
| OCCn1cc(Nc2ncc3cnn(Cc4cc(N5CCOCC5)ccc4F)c3n2)cn1 [Example 44, 2-(4-((1-(2-Fluoro-5-morpholinobenzyl)-1H-pyrazolo[3,4-d]pyrimidin-6-yl)amino)-1H-pyrazol-1-yl)ethanol] | 10-50 Fold | 100 to 1000 nM |
| OCCn1cc(Nc2ncc3cnn(Cc4c(F)c(F)cc(N5CCOCC5)c4F)c3n2)cn1 [Example 45, 2-(4-((1-(2,3,6-Trifluoro-5-morpholinobenzyl)-1H-pyrazolo[3,4-d]pyrimidin-6-yl)amino)-1H-pyrazol-1-yl)ethanol] | 10-50 Fold | 100 to 1000 nM |
| O=C1COCCN1c1cccc(Cn2ncc3cnc(Nc4cnn(CCO)c4)nc32)c1F [Example 46, 4-(2-Fluoro-3-((6-((1-(2-hydroxyethyl)-1H-pyrazol-4-yl)amino)-1H-pyrazolo[3,4-d]pyrimidin-1-yl)methyl)phenyl)morpholin-3-one] | 10-50 Fold | 100 to 1000 nM |
| OCCn1cc(Nc2ncc3cnn(Cc4cccc(N5CCNCC5)c4)c3n2)cn1 [Example 47, 2-(4-((1-(3-(piperazin-1-yl)benzyl)-1H-pyrazolo[3,4-d]pyrimidin-6-yl)amino)-1H-pyrazol-1-yl)ethanol] | 10-50 Fold | 100 to 1000 nM |
| c1cc(Cn2ncc3cnc(Nc4cnn(CC5CCCNC5)c4)nc32)cc(N2CCOCC2)c1 (stereo not drawn) [Example 48, 1-(3-Morpholinobenzyl)-N-(1-(piperidin-3-ylmethyl)-1H-pyrazol-4-yl)-1H-pyrazolo[3,4-d]pyrimidin-6-amine] | >50 Fold | 1000 to 10000 nM |
| Cn1cc(Nc2ncc3cnn(Cc4cc(F)cc(N5CCOCC5)c4)c3n2)cn1 [Example 49, 1-(3-Fluoro-5-morpholinobenzyl)-N-(1-methyl-1H-pyrazol-4-yl)-1H-pyrazolo[3,4-d]pyrimidin-6-amine] | 10-50 Fold | 100 to 1000 nM |
| CN(C)CCCn1cc(Nc2ncc3cnn(Cc4cccc(N5CCOCC5=O)c4F)c3n2)cn1 [Example 50, 4-(3-((6-((1-(3-(Dimethylamino)propyl)-1H-pyrazol-4-yl)amino)-1H-pyrazolo[3,4-d]pyrimidin-1-yl)methyl)-2-fluorophenyl)morpholin-3-one] | >50 Fold | 100 to 1000 nM |
| OCCn1cc(Nc2ncc3cnn(Cc4cc(F)cc(N5CCOCC5)c4)c3n2)cn1 [Example 51, 2-(4-((1-(3-Fluoro-5-morpholinobenzyl)-1H-pyrazolo[3,4-d]pyrimidin-6-yl)amino)-1H-pyrazol-1-yl)ethanol] | 10-50 Fold | 100 to 1000 nM |
| Cn1cc(Nc2ncc3cnn(Cc4cc(F)cc(N5CCOCC5=O)c4)c3n2)cn1 [Example 52, 4-(3-Fluoro-5-((6-((1-methyl-1H-pyrazol-4-yl)amino)-1H-pyrazolo[3,4-d]pyrimidin-1-yl)methyl)phenyl)morpholin-3-one] | >50 Fold | 100 to 1000 nM |
| Cn1cc(Nc2ncc3cnn(Cc4cc(N5CCOCC5=O)cc(F)c4F)c3n2)cn1 [Example 53, 4-(3,4-Difluoro-5-((6-((1-methyl-1H-pyrazol-4-yl)amino)-1H-pyrazolo[3,4-d]pyrimidin-1-yl)methyl)phenyl)morpholin-3-one] | >50 Fold | 100 to 1000 nM |
| Cn1cc(Nc2ncc3cnn(Cc4cccc(N5CCNCC5=O)c4F)c3n2)cn1 [Example 54, 1-(2-Fluoro-3-((6-((1-methyl-1H-pyrazol-4-yl)amino)-1H-pyrazolo[3,4-d]pyrimidin-1-yl)methyl)phenyl)piperazin-2-one] | >50 Fold | 100 to 1000 nM |
| O=C1CNCCN1c1cccc(Cn2ncc3cnc(Nc4cnn(CCO)c4)nc32)c1F [Example 55, 1-(2-Fluoro-3-((6-((1-(2-hydroxyethyl)-1H-pyrazol-4-yl)amino)-1H-pyrazolo[3,4-d]pyrimidin-1-yl)methyl)phenyl)piperazin-2-one] | 10-50 Fold | 100 to 1000 nM |
| OCCn1cc(Nc2ncc3cnn(Cc4cc(N5CCOCC5)cc(F)c4F)c3n2)cn1 [Example 56, 2-(4-((1-(2,3-Difluoro-5-morpholinobenzyl)-1H-pyrazolo[3,4-d]pyrimidin-6-yl)amino)-1H-pyrazol-1-yl)ethanol] | >50 Fold | 1000 to 10000 nM |
| O=C1CNCCN1c1cccc(Cn2ncc3cnc(Nc4cnn(CCO)c4)nc32)c1 [Example 57, 1-(3-((6-((1-(2-Hydroxyethyl)-1H-pyrazol-4-yl)amino)-1H-pyrazolo[3,4-d]pyrimidin-1-yl)methyl)phenyl)piperazin-2-one] | 10-50 Fold | 100 to 1000 nM |
| O=C1COCCN1c1cc(F)cc(Cn2ncc3cnc(Nc4cnn(CCO)c4)nc32)c1 [Example 58, 4-(3-Fluoro-5-((6-((1-(2-hydroxyethyl)-1H-pyrazol-4-yl)amino)-1H-pyrazolo[3,4-d]pyrimidin-1-yl)methyl)phenyl)morpholin-3-one] | 10-50 Fold | 100 to 1000 nM |
| O=C1COCCN1c1cc(F)c(F)c(Cn2ncc3cnc(Nc4cnn(CCO)c4)nc32)c1 [Example 59, 4-(3,4-Difluoro-5-((6-((1-(2-hydroxyethyl)-1H-pyrazol-4-yl)amino)-1H-pyrazolo[3,4-d]pyrimidin-1-yl)methyl)phenyl)morpholin-3-one] | 10-50 Fold | 100 to 1000 nM |
| c1cc(Cn2ncc3cnc(Nc4cnn(CC5CCNC5)c4)nc32)cc(N2CCOCC2)c1 (stereo not drawn) [Example 60, 1-(3-Morpholinobenzyl)-N-(1-(pyrrolidin-3-ylmethyl)-1H-pyrazol-4-yl)-1H-pyrazolo[3,4-d]pyrimidin-6-amine] | >50 Fold | 1000 to 10000 nM |
| Cn1cc(Nc2ncc3cnn(Cc4c(F)c(F)cc(N5CCOCC5=O)c4F)c3n2)cn1 [Example 61, 4-(2,4,5-Trifluoro-3-((6-((1-methyl-1H-pyrazol-4-yl)amino)-1H-pyrazolo[3,4-d]pyrimidin-1-yl)methyl)phenyl)morpholin-3-one] | >50 Fold | 100 to 1000 nM |
| O=C1COCCN1c1cc(F)c(F)c(Cn2ncc3cnc(Nc4cnn(CCO)c4)nc32)c1F [Example 62, 4-(2,4,5-Trifluoro-3-((6-((1-(2-hydroxyethyl)-1H-pyrazol-4-yl)amino)-1H-pyrazolo[3,4-d]pyrimidin-1-yl)methyl)phenyl)morpholin-3-one] | 10-50 Fold | 100 to 1000 nM |
